From ChEMBL document CHEMBL1201862, “PubChem BioAssay data set” (2004) come the findings set out here.

Where a name gives a salt, the structure may show the parent alone. The source made the active and inactive calls.

Assay [1] deals with T1, Sentrin-specific protease 1 (Homo sapiens, UniProt Q9P0U3). As to the kind of experiment: SENP1 catalytic domain blockers, concentration series – biochemical, kinetic FRET, dose response (AID 651697). The format is functional. To be noted: read-out: IC50_Mean.
T1 sequence (Q9P0U3 whole entry, the tested form may be a part): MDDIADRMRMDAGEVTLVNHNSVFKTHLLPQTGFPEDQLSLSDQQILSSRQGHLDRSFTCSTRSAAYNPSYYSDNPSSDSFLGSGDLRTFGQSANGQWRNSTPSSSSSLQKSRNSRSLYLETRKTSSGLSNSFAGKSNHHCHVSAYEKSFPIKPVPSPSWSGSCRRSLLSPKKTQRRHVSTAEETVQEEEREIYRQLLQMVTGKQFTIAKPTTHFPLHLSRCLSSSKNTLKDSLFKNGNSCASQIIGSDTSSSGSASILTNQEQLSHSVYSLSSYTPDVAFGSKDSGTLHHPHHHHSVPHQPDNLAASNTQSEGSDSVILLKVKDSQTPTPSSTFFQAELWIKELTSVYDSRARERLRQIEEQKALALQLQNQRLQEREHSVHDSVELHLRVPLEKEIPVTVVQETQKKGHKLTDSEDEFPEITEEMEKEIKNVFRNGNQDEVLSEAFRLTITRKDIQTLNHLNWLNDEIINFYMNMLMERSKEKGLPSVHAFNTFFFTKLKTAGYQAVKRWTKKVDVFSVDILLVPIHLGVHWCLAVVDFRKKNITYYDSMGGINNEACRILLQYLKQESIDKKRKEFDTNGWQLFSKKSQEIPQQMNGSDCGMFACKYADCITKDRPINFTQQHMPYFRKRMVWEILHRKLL
The target of assay [2] is T1, Sentrin-specific protease 1. As to the kind of experiment: Dose response confirmation of small molecule inhibitors of the catalytic domain of the SUMO protease, SENP1 in a FRET assay. The format is functional. To be noted: read-out: IC50_Mean.
Assay [3] has as its target T2, Carboxy-terminal domain RNA polymerase II polypeptide A small phosphatase 1 (Homo sapiens, UniProt Q9GZU7).
T2 sequence (Q9GZU7 whole entry): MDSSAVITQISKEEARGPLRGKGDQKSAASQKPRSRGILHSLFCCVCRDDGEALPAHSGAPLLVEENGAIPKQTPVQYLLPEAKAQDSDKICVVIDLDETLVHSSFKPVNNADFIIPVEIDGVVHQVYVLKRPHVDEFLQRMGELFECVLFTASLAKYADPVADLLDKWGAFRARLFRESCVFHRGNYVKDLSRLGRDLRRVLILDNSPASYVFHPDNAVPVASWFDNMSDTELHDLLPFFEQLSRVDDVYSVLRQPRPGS
Kind of assay: CTDSP1 inhibitors, concentration-response, biochemical, absorbance readout, ultra-high-throughput screen actives (AID 540297). The format is functional.

In assay [4] the target is Arf-GAP with SH3 domain, ANK repeat and PH domain-containing protein 1 (Homo sapiens, UniProt Q9ULH1). The format is functional.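 Further: biochemical fluorescence polarization dose–response screen measuring inhibition of ASAP1; ASAP1 GAP domain stimulating GTP hydrolysis by truncated human ARF1.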
Chain of Arf-GAP with SH3 domain, ANK repeat and PH domain-containing protein 1 (Q9ULH1 whole entry, the tested form may be a part): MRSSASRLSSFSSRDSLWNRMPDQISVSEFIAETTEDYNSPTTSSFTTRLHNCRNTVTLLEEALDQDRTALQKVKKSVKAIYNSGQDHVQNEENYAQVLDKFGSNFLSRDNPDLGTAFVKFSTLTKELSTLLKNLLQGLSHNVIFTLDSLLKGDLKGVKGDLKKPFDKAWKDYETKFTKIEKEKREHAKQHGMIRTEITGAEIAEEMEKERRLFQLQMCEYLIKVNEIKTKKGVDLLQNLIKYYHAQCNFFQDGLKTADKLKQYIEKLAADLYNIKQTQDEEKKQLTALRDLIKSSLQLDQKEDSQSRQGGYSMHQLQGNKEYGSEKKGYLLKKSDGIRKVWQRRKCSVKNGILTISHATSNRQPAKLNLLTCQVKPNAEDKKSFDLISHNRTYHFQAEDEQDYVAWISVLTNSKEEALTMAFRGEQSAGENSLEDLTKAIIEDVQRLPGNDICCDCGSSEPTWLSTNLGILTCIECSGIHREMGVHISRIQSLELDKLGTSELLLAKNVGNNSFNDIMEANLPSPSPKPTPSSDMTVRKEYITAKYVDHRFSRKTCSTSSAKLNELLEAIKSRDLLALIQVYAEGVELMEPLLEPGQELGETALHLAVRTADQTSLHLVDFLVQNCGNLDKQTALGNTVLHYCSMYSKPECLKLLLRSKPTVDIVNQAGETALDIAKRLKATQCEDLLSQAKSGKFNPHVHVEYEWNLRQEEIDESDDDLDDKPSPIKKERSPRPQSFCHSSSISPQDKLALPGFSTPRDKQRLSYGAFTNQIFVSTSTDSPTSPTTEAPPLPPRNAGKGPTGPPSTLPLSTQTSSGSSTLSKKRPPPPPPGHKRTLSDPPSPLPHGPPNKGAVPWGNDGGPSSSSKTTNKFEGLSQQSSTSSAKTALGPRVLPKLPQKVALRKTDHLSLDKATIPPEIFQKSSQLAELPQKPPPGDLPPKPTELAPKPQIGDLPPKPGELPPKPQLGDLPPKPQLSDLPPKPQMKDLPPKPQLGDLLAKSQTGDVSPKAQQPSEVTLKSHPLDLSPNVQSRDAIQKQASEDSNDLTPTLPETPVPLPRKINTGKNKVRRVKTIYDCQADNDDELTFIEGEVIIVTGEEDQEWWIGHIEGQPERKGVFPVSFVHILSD
Assay [5] in a line: Luminescence Cell-Based Dose Response to Identify Activators of 5'UTR Stem-Loop Driven Prion Protein mRNA Translation in H4-C Neuroglioblastoma Cells. [Related pubchem assays: 1829 (Project Summary), 1814 (Primary HTS)]. The format is functional.
Assay [6] in a line: Luminescence Cell-Based Dose Response HTS to Identify Activators of Luciferase Translation or Activity in H4 […] Cells. [Related pubchem assays: 1829 (Project Summary), 1814 (Primary HTS)]. The format is functional.
The test system of another assay is H4. Kind of assay: Luminescence Cell-Based Dose Response HTS to Identify Activators of 5'UTR Stem-Loop Driven Prion Protein mRNA Translation in H4 Neuroglioblastoma Cells. [Related pubchem assays: 1829 (Project Summary), 1814 (Primary HTS)]. The format is functional. To be noted: Homo sapiens.
Assay [7] is described as follows: Luminescence Cell-Based Dose Response to Identify Activators of Luciferase Translation or Activity in H4-C Neuroglioblastoma Cells. [Related pubchem assays: 1829 (Project Summary), 1814 (Primary HTS)]. The assay is classed as functional.
Assay [8] can be described thus: Luminescence Cell-Based Dose Confirmation to Identify Activators of 5'UTR Stem-Loop Driven Alpha-Synuclein mRNA Translation in H4 Neuroglioblastoma Cells. [Related pubchem assays: 1829 (Project Summary), 1814 (Primary HTS)]. The assay is classed as functional.
Assay [9] has as its target ATP-dependent translocase ABCB1 (Homo sapiens, UniProt P08183). Kind of assay: inhibition of P-gp mediated JC-1 efflux – Jurkat-DNR cells, flow cytometry, dose response (AID 1689). The assay is classed as functional. In general terms: Flow cytometry measures light scatter and fluorescence of single cells or particles in a stream.
In a further assay the target is T3, Protein skinhead-1 (Caenorhabditis elegans, UniProt P34707).
T3 sequence (P34707 whole entry): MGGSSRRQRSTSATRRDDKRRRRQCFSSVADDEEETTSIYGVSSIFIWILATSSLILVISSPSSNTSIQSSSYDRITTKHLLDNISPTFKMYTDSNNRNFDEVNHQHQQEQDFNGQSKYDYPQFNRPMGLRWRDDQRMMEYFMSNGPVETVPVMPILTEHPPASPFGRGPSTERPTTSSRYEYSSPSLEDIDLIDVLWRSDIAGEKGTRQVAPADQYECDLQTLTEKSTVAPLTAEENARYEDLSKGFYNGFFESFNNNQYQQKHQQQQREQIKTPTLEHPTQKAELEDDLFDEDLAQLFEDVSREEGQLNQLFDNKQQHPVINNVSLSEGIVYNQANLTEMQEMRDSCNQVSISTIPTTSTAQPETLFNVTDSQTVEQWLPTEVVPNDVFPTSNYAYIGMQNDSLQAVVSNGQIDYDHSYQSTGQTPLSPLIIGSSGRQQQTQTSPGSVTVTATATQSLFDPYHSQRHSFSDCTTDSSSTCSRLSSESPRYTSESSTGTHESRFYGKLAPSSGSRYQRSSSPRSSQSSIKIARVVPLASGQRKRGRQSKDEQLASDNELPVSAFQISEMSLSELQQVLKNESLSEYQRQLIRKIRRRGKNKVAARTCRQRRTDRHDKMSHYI
The assay is classed as functional.

Assay [10] addresses Broad substrate specificity ATP-binding cassette transporter ABCG2 (Homo sapiens, UniProt Q9UNQ0). Kind of assay: blockers of JC-1 export by ABCG2 – Ig-MXP3 cells, flow cytometry, dose response (AID 1690). The assay is classed as functional.
Assay [11] addresses T4, Small ubiquitin-related modifier 1 (Homo sapiens, UniProt P63165). Kind of assay: SUMO1 protein interaction blockers, potency – biochemical, fluorescence polarization, uHTS hits, dose response (AID 624382). To be noted: read-out: IC50_Mean. The assay is classed as functional. (In general: In fluorescence polarisation assays a small probe gives low polarisation when free and higher when bound to something large.)

For assay [12], the target named is T4, Small ubiquitin-related modifier 1. As to the kind of experiment: SUMO1 protein-protein binding blockers, potency – biochemical, FRET, dose response (AID 624383). The assay is classed as functional. To be noted: read-out: IC50_Mean.
For assay [13], the target named is Nuclear receptor subfamily 5 group A member 2 (Homo sapiens, UniProt O00482). The assay is classed as functional, cell-based.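 Further: HEK293T cells transfected with LRH-1 and a StAR promoter luciferase reporter; potency for inhibitors that lower LRH-1 driven reporter light.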
Chain of Nuclear receptor subfamily 5 group A member 2 (O00482 whole entry): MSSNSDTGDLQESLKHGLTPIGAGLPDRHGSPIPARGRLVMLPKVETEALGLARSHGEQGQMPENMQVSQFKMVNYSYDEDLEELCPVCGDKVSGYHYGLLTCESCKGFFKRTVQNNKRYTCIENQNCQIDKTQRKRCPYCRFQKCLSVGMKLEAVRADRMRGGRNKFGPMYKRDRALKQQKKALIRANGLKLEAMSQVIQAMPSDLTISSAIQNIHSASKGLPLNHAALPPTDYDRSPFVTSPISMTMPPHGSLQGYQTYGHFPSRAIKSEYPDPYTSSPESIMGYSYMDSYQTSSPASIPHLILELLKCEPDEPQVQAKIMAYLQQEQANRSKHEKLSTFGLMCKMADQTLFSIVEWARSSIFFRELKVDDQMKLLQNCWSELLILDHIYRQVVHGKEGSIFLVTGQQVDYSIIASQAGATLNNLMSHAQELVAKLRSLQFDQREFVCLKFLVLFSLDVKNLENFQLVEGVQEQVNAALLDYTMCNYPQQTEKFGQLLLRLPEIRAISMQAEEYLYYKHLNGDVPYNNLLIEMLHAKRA
The next assay addresses Steroidogenic factor 1 (Homo sapiens, UniProt Q13285). Kind of assay: Counterscreen for inverse agonists of the liver receptor homolog-1 (LRH-1; NR5A2): Luminescence-based cell-based high throughput dose response assay to identify inverse agonists of the Steroidogenic Factor 1 Nuclear Receptor (SF1; NR5A1). The format is functional. A general note: A counterscreen serves to expose hits that act by an unwanted route or on another target.

The nature of assay [14]: nonselective StAR promoter luciferase inhibitors – cell-based, luminescence, luciferase reporter, counter-screen for LRH-1 inverse agonist project, dose response (AID 651969). The assay is classed as functional.
Assay [15] deals with T5, Low molecular weight phosphotyrosine protein phosphatase (Homo sapiens, UniProt P24666).
T5 sequence (P24666 whole entry): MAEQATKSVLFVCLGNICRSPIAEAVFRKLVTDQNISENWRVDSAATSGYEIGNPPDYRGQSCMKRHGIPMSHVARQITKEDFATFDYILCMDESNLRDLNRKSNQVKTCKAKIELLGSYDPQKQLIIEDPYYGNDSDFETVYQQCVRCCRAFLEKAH
The assay is classed as functional. To be noted: read-out: IC50_Mean.

The target in assay [16] is T6, Tyrosine-protein phosphatase non-receptor type 22 (Homo sapiens, UniProt Q9Y2R2).
T6 sequence (Q9Y2R2 whole entry): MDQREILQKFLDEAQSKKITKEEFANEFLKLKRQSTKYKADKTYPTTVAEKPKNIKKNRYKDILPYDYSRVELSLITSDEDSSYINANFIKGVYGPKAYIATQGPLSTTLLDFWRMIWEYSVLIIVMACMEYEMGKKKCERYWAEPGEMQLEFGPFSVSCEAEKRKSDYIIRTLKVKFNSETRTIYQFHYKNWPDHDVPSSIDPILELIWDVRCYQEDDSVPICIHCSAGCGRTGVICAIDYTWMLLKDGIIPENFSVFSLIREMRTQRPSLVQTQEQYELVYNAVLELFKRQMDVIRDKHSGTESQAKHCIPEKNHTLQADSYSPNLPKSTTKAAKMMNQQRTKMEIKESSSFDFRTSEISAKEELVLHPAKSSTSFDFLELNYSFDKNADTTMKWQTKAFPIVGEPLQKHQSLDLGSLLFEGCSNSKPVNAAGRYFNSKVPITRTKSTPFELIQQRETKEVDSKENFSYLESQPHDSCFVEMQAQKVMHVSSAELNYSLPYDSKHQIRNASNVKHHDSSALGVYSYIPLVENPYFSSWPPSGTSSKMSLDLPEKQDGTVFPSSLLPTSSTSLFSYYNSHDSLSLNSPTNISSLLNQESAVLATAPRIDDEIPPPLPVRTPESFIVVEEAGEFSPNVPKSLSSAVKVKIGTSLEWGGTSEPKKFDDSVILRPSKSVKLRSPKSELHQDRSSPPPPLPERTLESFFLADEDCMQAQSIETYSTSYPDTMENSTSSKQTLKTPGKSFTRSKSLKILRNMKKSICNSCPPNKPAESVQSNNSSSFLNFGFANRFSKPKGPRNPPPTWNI
Kind of assay: PTPN22 enzyme inhibitors – biochemical, fluorescence, LYP catalytic domain, selectivity assay for LMPTP inhibitor project, dose response (AID 652006). The format is functional. To be noted: read-out: IC50_Mean.

T4 sequence (P63165 whole entry): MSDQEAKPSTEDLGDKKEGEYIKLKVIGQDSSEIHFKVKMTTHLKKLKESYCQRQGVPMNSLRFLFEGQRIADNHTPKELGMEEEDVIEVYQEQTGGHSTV
Chain of ATP-dependent translocase ABCB1 (P08183 whole entry): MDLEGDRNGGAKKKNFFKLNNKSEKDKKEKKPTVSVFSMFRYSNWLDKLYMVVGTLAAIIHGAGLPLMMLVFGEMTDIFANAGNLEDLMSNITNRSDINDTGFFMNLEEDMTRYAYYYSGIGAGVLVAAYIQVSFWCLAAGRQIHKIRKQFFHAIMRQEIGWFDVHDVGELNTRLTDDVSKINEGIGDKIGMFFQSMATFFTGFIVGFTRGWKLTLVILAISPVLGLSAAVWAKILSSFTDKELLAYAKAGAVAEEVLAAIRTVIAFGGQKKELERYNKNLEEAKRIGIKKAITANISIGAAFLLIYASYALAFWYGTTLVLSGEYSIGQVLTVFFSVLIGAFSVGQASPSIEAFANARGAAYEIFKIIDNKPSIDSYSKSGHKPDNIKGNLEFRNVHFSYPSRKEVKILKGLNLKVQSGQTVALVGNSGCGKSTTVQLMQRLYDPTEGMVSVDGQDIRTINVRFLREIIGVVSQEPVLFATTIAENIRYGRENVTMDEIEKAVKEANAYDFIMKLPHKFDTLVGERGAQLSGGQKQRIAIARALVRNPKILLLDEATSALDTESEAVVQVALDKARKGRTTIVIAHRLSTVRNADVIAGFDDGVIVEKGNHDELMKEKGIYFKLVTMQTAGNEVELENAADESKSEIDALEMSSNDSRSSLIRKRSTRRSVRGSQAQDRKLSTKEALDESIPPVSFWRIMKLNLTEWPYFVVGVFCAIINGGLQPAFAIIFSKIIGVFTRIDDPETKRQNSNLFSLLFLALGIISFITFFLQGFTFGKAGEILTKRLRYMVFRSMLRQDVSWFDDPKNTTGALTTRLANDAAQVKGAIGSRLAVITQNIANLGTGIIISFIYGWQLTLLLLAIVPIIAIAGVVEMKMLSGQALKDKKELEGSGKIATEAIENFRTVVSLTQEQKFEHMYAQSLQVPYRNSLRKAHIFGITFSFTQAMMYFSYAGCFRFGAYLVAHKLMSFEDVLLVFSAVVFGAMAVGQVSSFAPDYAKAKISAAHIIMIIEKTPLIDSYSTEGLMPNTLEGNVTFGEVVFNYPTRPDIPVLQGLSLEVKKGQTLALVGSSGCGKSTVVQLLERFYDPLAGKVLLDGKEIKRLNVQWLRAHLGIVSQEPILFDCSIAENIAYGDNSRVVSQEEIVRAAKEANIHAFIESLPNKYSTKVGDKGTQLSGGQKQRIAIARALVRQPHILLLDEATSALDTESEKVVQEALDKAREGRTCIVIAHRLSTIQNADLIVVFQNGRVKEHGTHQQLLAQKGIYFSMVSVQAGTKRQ
Chain of Broad substrate specificity ATP-binding cassette transporter ABCG2 (Q9UNQ0 whole entry): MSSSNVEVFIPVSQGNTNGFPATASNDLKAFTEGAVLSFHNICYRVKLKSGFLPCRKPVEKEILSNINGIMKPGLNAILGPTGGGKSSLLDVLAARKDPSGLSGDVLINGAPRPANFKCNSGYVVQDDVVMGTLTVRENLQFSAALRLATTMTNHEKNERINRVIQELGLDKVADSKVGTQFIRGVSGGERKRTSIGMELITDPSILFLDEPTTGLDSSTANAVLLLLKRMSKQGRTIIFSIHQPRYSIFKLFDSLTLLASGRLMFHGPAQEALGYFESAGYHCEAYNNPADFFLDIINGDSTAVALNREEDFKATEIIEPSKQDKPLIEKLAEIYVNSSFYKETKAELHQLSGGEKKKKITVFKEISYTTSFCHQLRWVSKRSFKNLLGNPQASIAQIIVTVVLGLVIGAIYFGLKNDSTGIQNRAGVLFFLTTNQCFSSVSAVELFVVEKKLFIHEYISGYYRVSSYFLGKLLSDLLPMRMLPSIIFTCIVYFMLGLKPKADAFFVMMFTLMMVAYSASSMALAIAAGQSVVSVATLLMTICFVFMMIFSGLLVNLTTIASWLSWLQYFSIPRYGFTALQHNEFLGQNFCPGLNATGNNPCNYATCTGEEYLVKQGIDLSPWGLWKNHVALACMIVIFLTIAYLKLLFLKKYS
Chain of Steroidogenic factor 1 (Q13285 whole entry): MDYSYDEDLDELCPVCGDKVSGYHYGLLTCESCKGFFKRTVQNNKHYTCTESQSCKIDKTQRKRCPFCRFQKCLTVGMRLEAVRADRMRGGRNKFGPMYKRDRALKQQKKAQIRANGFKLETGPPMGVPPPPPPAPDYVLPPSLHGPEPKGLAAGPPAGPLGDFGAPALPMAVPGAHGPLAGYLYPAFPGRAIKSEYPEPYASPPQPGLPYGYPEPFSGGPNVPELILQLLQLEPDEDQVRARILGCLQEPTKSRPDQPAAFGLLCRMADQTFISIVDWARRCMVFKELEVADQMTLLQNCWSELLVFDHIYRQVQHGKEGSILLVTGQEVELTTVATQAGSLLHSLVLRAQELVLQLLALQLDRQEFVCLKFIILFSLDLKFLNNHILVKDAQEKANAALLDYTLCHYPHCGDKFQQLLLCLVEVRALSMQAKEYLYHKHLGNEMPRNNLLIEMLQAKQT

Consider `C=CCOc1c(Br)cc(/C=C2/N=C(S)N(C(C)=O)C2=O)cc1OC`, for which the results for the IC50 in [1] and in assay [2] were 7.01 µM (active) and 8.78 µM (active), respectively.
With `COc1ccc2cc(C(=O)Nc3ccc(Cl)cc3)sc(=O)c2c1OC`, the IC50 in [3] is 3.51 µM (active); in [4], 12.6 µM (inactive).
One may read the EC50 as the concentration that produces a half-maximal response. Regarding `O=[N+]([O-])c1ccccc1-c1nc(-c2ccc(Br)o2)no1`, the EC50 in [5] was 0.302 µM (active); in assay [6] it was < 0.1 µM (active); in the assay on H4 it was > 120 µM (not active); in [7] it was 0.364 µM (active); in assay [8] it was 0.252 µM (active); in [9], 28.2 µM (inactive). For the same compound, the concentration giving a half-maximal response (EC50) in assay [10] is 4.88 µM (active). Also, the IC50 on Protein skinhead-1 was 69.1 µM (inactive).
Regarding `O=C(COC(=O)c1nc(Cl)ccc1Cl)Nc1ccc2[nH]c(O)nc2c1`, the values for the IC50 in assay [11] and in [12] were > 66.6 µM (inactive) and 20.8 µM (inactive), respectively.
Consider `Cc1cc(OCC(=O)NCc2cccnc2)c2c(C)c(C)c(=O)oc2c1`, for which the results for the IC50 (in assay [13]; on Steroidogenic factor 1; in assay [14]) were 2.88 µM (active), 2.35 µM (active) and 35.9 µM (inactive), respectively.
On to `COc1cccc2c1[C@@H]1CN(CCCCn3c(=O)[nH]c4c(sc5ncc(-c6ccccc6)nc54)c3=O)C[C@@H]1CO2` [FIDUXOSIN HYDROCHLORIDE], for which the IC50 is 13.2 µM (active) in [15] and 24.7 µM (inactive) in assay [16].
